Numbered stars: 1 amine (or outer) side, 2 acyl side, 3 side chain; on linkers, the order of the positions; unused ones are H or OH. Square brackets hold non-standard residues; d marks the D form. Peptide text beside a SMILES is read from it. * marks the point of attachment. Dip = N[C@H](C(=O)O)C(c1ccccc1)c1ccccc1; CO = O=C([*:1])[*:2]; Ms = CS(=O)(=O)* Some results are limits rather than exact numbers.

A short description of this test: Inhibition of ET-1 stimulated arachidonic acid release in rabbit renal vascular smooth muscle cells.
In the case of `CC[C@H](C)[C@H](NC(=O)[C@H](C)NC(=O)[C@H](CC(C)C)NC(=O)[C@@H](NC(C)=O)C(c1ccccc1)c1ccccc1)C(=O)N[C@H](C(=O)N[C@@H](Cc1c[nH]c2ccccc12)C(=O)O)[C@@H](C)CC` [(S)-2-[(2S,3S)-2-((2S,3S)-2-{(S)-2-[(S)-2-((S)-2-Acetylamino-3,3-diphenyl-propionylamino)-4-methyl-pentanoylamino]-propionylamino}-3-methyl-pentanoylamino)-3-methyl-pentanoylamino]-3-(1H-indol-3-yl)-propionic acid] (Ac-[Dip]LAIIW-OH), the IC50 (usually the concentration at which inhibition is half-maximal) was 0.07 µM. `CC[C@H](C)[C@H](NC(=O)[C@H](Cc1ccccc1)NC(=O)[C@H](CC(=O)O)NC(=O)[C@H](CC(C)C)NC(=O)[C@@H](NC(C)=O)C(c1ccccc1)c1ccccc1)C(=O)N[C@@H](Cc1c[nH]c2ccccc12)C(=O)O` [(S)-3-[(S)-2-((S)-2-Acetylamino-3,3-diphenyl-propionylamino)-4-methyl-pentanoylamino]-N-((S)-1-{(1S,2S)-1-[(S)-1-carboxy-2-(1H-indol-3-yl)-ethylcarbamoyl]-2-methyl-butylcarbamoyl}-2-phenyl-ethyl)-succinamic acid] (Ac-[Dip]LDFIW-OH) yielded a half-maximal inhibitory concentration (IC50) of 0.16 µM. For the molecule `CC[C@H](C)[C@H](NC(=O)[C@H](CC(=O)O)NC(=O)[C@H](CC(C)C)NC(=O)[C@@H](NC(C)=O)C(c1ccccc1)c1ccccc1)C(=O)N[C@@H](CCCCN)C(=O)N[C@@H](Cc1c[nH]c2ccccc12)C(=O)O` [(S)-3-[(S)-2-((S)-2-Acetylamino-3,3-diphenyl-propionylamino)-4-methyl-pentanoylamino]-N-((1S,2S)-1-{(S)-5-amino-1-[(S)-1-carboxy-2-(1H-indol-3-yl)-ethylcarbamoyl]-pentylcarbamoyl}-2-methyl-butyl)-succinamic acid] (Ac-[Dip]LDIKW-OH), the IC50 was more than 10 µM. As for `CC[C@H](C)[C@H](NC(=O)[C@H](CC(=O)O)NC(=O)[C@H](CC(C)C)NC(=O)[C@@H](NS(C)(=O)=O)C(c1ccccc1)c1ccccc1)C(=O)N[C@H](C(=O)N[C@@H](Cc1c[nH]c2ccccc12)C(=O)O)[C@@H](C)CC` [(S)-N-((1S,2S)-1-{(1S,2S)-1-[(S)-1-Carboxy-2-(1H-indol-3-yl)-ethylcarbamoyl]-2-methyl-butylcarbamoyl}-2-methyl-butyl)-3-[(S)-2-((S)-2-methanesulfonylamino-3,3-diphenyl-propionylamino)-4-methyl-pentanoylamino]-succinamic acid] (Ms-[Dip]LDIIW-OH), the figure is 2.1 µM. Regarding `CC[C@H](C)[C@H](NC(=O)[C@H](CC(=O)O)NC(=O)[C@H](CC(C)C)NC(=O)[C@@H](NC(=O)NC)C(c1ccccc1)c1ccccc1)C(=O)N[C@H](C(=O)N[C@@H](Cc1c[nH]c2ccccc12)C(=O)O)[C@@H](C)CC` [(S)-N-((1S,2S)-1-{(1S,2S)-1-[(S)-1-Carboxy-2-(1H-indol-3-yl)-ethylcarbamoyl]-2-methyl-butylcarbamoyl}-2-methyl-butyl)-3-{(S)-4-methyl-2-[(S)-2-(3-methyl-ureido)-3,3-diphenyl-propionylamino]-pentanoylamino}-succinamic acid] ({NHMe-CO}-[Dip]LDIIW-OH), the midpoint of inhibition, the IC50, lay at 0.28 µM. `CC[C@H](C)[C@H](NC(=O)[C@H](CCC(=O)O)NC(=O)[C@H](CC(C)C)NC(=O)[C@@H](NC(C)=O)C(c1ccccc1)c1ccccc1)C(=O)N[C@H](C(=O)N[C@@H](Cc1c[nH]c2ccccc12)C(=O)O)[C@@H](C)CC` [(S)-4-[(S)-2-((S)-2-Acetylamino-3,3-diphenyl-propionylamino)-4-methyl-pentanoylamino]-4-((1S,2S)-1-{(1S,2S)-1-[(S)-1-carboxy-2-(1H-indol-3-yl)-ethylcarbamoyl]-2-methyl-butylcarbamoyl}-2-methyl-butylcarbamoyl)-butyric acid] (Ac-[Dip]LEIIW-OH) gave an IC50 of 0.43 µM.

The values above are taken from BindingDB's records for doi:10.1021/jm00015a003 (Warner-Lambert, 1995).
